Test results as given in patent publication US9050353B2, “Use of icariin and epimedium flavonoids containing icariin to treat diseases associated with myelin sheath lesion” (Xuanwu Hospital of Capital Medical University, priority 2010, dated 2015).

What was measured:
Format in all cases: in vivo
[1] = tested on: peripheral blood CD4+ and CD8+ T cells; assay: Peripheral blood T cell subgroup by flow cytometer, EAE mice; details: positive control drug, dose not given
Experimental: (§1) Preparation of mice model and administration: experimental autoimmune encephalomyelitis (EAE) mice model is an important tool for studying various human demyelinating diseases of nervous system. In the present experiment, the preparation of EAE mice model was performed by immunizing female C57BL/6J mice with myelin sheath oligodendroglial cell surface glycoprotein MOG35-55. That is, the mice were subcutaneously injected at dorsal part of spinal column with 0.2 mL of MOG35-55 antigen elixir, and 0.2 ml of bordetella pertussis solution was intraperitoneally injected at the time of immunization injection and 48 h thereafter, respectively. Icariin was intragastrically administered after the last injection of bordetella pertussis solution, for consecutive 3 weeks.
Experimental objective: one common feature of autoimmune diseases is the […]. In this experiment, the numbers of CD4+ and CD8+ cells in peripheral blood T cell subgroup of EAE mice mode were measured by flow cytometer (FACS), and the ratio of them was obtained; and the effects of icariin on these changes were observed.
Experimental method: mice were anesthetized with pentobarbital sodium, blood sample was taken from abdominal aorta, stood at room temperature for 2 h, centrifuged at 3000 rpm for 20 min, and cells were taken, added with anti-CD4+, CD8+ T cell antibodies with different markers, then the percentages of CD4+, CD8+ cells in T lymphocytes were measured by flow cytometer, and the CD4+/CD8+ T cells ratio was calculated.

[2] = tested on: myelinoclasis of spinal cord lumbar intumescentia in EAE rat model; assay: Myelinoclasis of spinal cord lumbar intumescentia, LFB staining, EAE rats; details: positive control drug, dose not given, scale 0-4
Experimental: Preparation of rat model and administration: experimental autoimmune encephalomyelitis (EAE) model is an important tool for studying various human demyelinating diseases of nervous system. In the example, the preparation of EAE rat model was performed by multipoint immunizing female Lewis rats subcutaneously at tail root with a homogenate of spinal cord and cerebral gray matter of Guinea pig as well as complete Freund's adjuvant after emulsification. They were intragastrically administered with Epimedium flavanoids for 3 weeks. […]
Experimental method: the rats were anesthetized with 10% chloral hydrate on the 14th day of experiment, fixed by perfusion of 4% paraformaldehyde, spinal cord tissues were taken for making paraffin sections, section thickness 4 μm. (1) Stained with LFB, observed under microscope, and scored according to the following standard: 0 score, absence of myelinoclasis; 1 score, one small range of myelinoclasis; 2 score, 2 or 3 small ranges of myelinoclasis; 3 score, 1 to 2 large ranges of myelinoclasis; 4 score, large ranges of myelinoclasis accumulatively existing in 20% or more of white matter regions. […]

[3] = tested on: Superoxide dismutase (SOD); assay: SOD activity of cerebral cortex, biochemical kit, EAE rats; details: positive control drug, dose not given
Experimental: (§2) Preparation of rat model and administration: experimental autoimmune encephalomyelitis (EAE) model is an important tool for studying various human demyelinating diseases of nervous system. In the example, the preparation of EAE rat model was performed by multipoint immunizing female Lewis rats subcutaneously at tail root with a homogenate of spinal cord and cerebral gray matter of Guinea pig as well as complete Freund's adjuvant after emulsification. They were intragastrically administered with Epimedium flavanoids for 3 weeks.
(§3) Experimental objective: the lipid peroxidation between oxygen free radicals and unsaturated fatty acids of cell membranes and organelle membranes results in the damage, degradation, denaturation and dysfunction of membrane phospholipids. Malondialdehyde (MDA) is a metabolic product of lipid peroxidation, and the increase of MDA indicates the enhancement of lipid peroxidation, which may lead to damage of nerve cells and myelin sheath. Superoxide dismutase (SOD) can scavenge superoxide anions and is an important antioxidase in vivo. In this experiment, SOD activity and MDA content of brain tissues in EAE rat model were measured by biochemistry method, and the effects of Epimedium flavanoids on changes thereof were observed. […]

[4] = tested on: myelin basic protein (MBP); assay: Spinal cord MBP by Western blot, EAE mice; details: positive control drug, dose not given
Experimental: as §1
Experimental objective: myelin sheath is formed with prominences of oligodendroglial cells. CNPase, myelin basic protein (MBP) are marker proteins of mature oligodendroglial cells. The present experiment was to observe the expression of CNPase and MBP to represent the content of oligodendroglial cells in spinal cord of EAE model mice by Western blot method; and to study the effects of icariin on it.
Experimental method: the mice were anesthetized and sacrificed, fresh spinal cord was taken on ice, total protein was extracted by cleavage on ice, to prepare Western blot sample, added separately with CNPase, MBP primary antibodies and incubated, added with corresponding secondary antibodies, ECL colorated, Kodak film exposed. Pictures were analyzed with Image J software and standardized with β-actin.

Malondialdehyde (MDA) = assay: MDA content of cerebral cortex, biochemical kit, EAE rats; details: positive control drug, dose not given
Experimental: as §2, §3

IL-1 = assay: Serum IL-1 content by ELISA, EAE mice; details: positive control drug, dose not given
Experimental: as §1
Experimental objective: interleukin-1 (IL-1) and IL-6 are important inflammatory cytokines, and have promoting effects on inflammatory reactions. This experiment used enzyme linked immunosorbent assay (ELISA) to measure contents of IL-1 and IL-6 in serums of EAE mice model, and the effects of icariin on these contents were observed.
Experimental method: mice were anesthetized with pentobarbital sodium, blood sample was taken from abdominal aorta, stood at room temperature for 2 h, centrifuged at 3000 rpm for 20 min, and supernatant was taken, stored at −80° C. for use. The operation was performed strictly according to the steps of specification of ELISA kit. Optical density was measured with ELIASA at 450 nm. The corresponding contents of IL-1 and IL-6 were calculated with the measured OD values on standard curves.

Question: Which “CD4 + T cells” value [1] does the source give for `CC(=O)OCC(=O)[C@@]1(O)CC[C@H]2[C@@H]3CCC4=CC(=O)C=C[C@]4(C)[C@H]3C(=O)C[C@@]21C` [prednisone acetate] here?
Answer: 30.45 ± 8.77%

Question: And the “CD4 +/CD8 + ratio” value [1]?
Answer: 0.52 ± 0.23

Question: And the “CD8 + T cells” value [1]?
Answer: 60.62 ± 5.58%

Question: And the “Myelinoclasis (LFB staining score)” value [2]?
Answer: 0.89 ± 0.20

Question: And the SOD activity [3]?
Answer: 134.5 ± 5.1 U/mg protein

Question: And the “MBP/actin Integration grey level” value [4]?
Answer: 1.05 ± 0.11

Question: What about the MDA content (Malondialdehyde (MDA)) of the same compound?
Answer: 1.03 ± 0.09 nmol/mg protein

Question: And the IL-1 content (IL-1)?
Answer: 0.115 ± 0.001 pg/mL
